# Assay results: article PMC8726015 (ACS chemical biology, 2021)
# Tests used:
# [1] = target: T1, human phosphopantothenoylcysteine synthetase (hPPCS) (Homo sapiens, UniProt Q9HAB8); experiment: X-ray crystal structure at […] Å; format: binding
# [2] = target: T2, human pantothenate kinase hPANK1β (Homo sapiens, UniProt Q8TE04); experiment: PK/LDH-coupled kinase assay, substrate turnover; format: biochemical; settings: read-out: KM or K0.5
# T2 sequence (Q8TE04 1-373 isoform Q8TE04-2): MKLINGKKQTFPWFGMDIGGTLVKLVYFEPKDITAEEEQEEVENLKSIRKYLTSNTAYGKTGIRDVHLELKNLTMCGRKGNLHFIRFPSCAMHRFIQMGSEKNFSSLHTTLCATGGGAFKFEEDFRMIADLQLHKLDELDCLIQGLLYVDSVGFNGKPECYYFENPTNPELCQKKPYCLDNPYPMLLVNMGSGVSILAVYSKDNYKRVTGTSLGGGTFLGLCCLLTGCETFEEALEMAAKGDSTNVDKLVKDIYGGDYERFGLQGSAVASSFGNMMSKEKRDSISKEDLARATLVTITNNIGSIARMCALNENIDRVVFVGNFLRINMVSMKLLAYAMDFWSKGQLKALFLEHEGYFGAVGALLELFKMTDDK
# [3] = target: T1, human phosphopantothenoylcysteine synthetase (hPPCS); experiment: X-ray crystal structure at […] Å; format: biochemical
# [4] = target: T3, fruit fly phosphopantothenoylcysteine synthetase (dPPCS) (Drosophila melanogaster, UniProt Q7KN99); experiment: pyrophosphate-coupled NADH oxidation enzyme assay; format: biochemical
# T3 sequence (Q7KN99 1-313): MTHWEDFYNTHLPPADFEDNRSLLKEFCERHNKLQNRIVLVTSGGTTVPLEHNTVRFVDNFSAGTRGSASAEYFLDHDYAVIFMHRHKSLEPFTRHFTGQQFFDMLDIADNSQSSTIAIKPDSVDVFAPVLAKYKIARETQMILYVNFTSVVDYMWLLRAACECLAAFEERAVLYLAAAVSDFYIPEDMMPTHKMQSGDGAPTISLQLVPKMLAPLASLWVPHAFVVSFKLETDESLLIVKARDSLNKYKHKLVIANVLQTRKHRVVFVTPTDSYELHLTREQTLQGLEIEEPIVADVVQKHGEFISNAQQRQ
# T1 sequence (Q9HAB8 2-311): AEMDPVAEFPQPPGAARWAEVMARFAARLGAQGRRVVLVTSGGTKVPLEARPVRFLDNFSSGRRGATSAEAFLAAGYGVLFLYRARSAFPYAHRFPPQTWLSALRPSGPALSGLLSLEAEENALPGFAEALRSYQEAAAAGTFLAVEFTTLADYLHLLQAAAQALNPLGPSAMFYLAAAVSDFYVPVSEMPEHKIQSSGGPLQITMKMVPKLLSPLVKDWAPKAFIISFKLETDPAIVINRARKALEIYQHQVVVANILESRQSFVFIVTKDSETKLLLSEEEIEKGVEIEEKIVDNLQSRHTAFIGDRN
Km [2] [µM],Structure (SMILES),further results
12.1 ± 1.9,"CC(C)(CO)[C@@H](O)C(=O)NCCCC(=O)O [compound 1, HoPan]",–
6.2 ± 0.88,"CC(C)(CO)[C@@H](O)C(=O)NCCC(=O)O [compound 3, Pan]",–

# The next lines start with the compound.
Structure (SMILES),Km [2] [µM],further results
Nc1ncnc2c1ncn2[C@@H]1O[C@H](CO[P@](=O)(O)O[P@](=O)(O)NP(=O)(O)O)[C@@H](O)[C@H]1O [AMPPNP],–,X-ray crystal structure at 1.9 Å (ternary complex with P-HoPan) [1]: electron densities for the co-factor AMPPNP and the ligand P-HoPan observed in both monomers
"CC(C)(COP(=O)(O)O)[C@@H](O)C(=O)NCCCC(=O)O [compound 2, P-HoPan]",–,Ki [3]: 13.4 ± 3.6 µM; Ki [4]: 20.9 ± 1.1 µM
"CC(C)(CO)[C@@H](O)C(=O)NCCC(=O)NCCS [compound 6, PantSH]",9.85 ± 1.17,–
